Data on one molecule can be found in ChEMBL document CHEMBL3351435, “New pyrrole derivatives with potent tubulin polymerization inhibiting activity as anticancer agents including hedgehog-dependent cancer” (J Med Chem, 2014).

Active and inactive are the calls of the source. The rule behind the calls is not given here.

The nature of series [1]: Elimination half life in CD-1 mouse at 5 mg/kg, iv. It counts as ADME, organism-based. Also noted: dose 5 mg/kg, route intravenous. The conditions noted are these: in vivo, read-out: beta t1/2.
Another series has as its system RD. The experiment in a line: Cytotoxicity against human RD cells assessed as growth inhibition after 48 hrs by MTT method. It is filed as functional, cell-based.
A further series has as its target CYP2C9 (Homo sapiens, UniProt P11712). The series is described as follows: Inhibition of human CYP2C9 using sulfaphenazole as substrate at 1 uM. The conditions noted are these: probe sulfaphenazole. It is filed as ADME.
A short description of series [2]: Cytotoxicity against human PC3 cells assessed as growth inhibition after 48 hrs by MTT method. It is filed as functional, cell-based. The conditions noted are these: PC-3, 48 h. (Tetrazolium dyes change colour on reduction, which living cells bring about.)
Series [3] is described as follows: Cmax in CD-1 mouse at 15 mg/kg, po. It is filed as ADME, organism-based. Conditions: in vivo. Also noted: dose 15 mg/kg, route oral.
Another series has as its target Tubulin (Homo sapiens) (UniProt P68371+Q9H4B7+P0DPH7+P68366+Q13509+Q71U36+P04350+Q3ZCM7+P07437+P68363+Q9BQE3+Q6PEY2+Q13885+Q9BVA1+Q9BUF5). The experiment in a line: Displacement of [3H]colchicine from tubulin (unknown origin) at 5 uM after 10 mins. It is filed as protein-complex assay.
A short description of series [4]: Mean residence time in CD-1 mouse at 15 mg/kg, po. Also noted: dose 15 mg/kg, route oral. It counts as ADME, organism-based. The conditions noted are these: in vivo.
Series [5] deals with HeLa. The series is described as follows: Cell cycle arrest in human HeLa cells assessed as mitotic rounded-up phenotype at 100 nM by light microscopy. It is filed as functional, cell-based.
For series [6], the system named is HeLa. The experiment in a line: Cell cycle arrest in human HeLa cells assessed as accumulation at G2/M phase at 20 nM by propidium iodide staining-based flow cytometry. It is filed as functional. For orientation: A flow cytometer gives signals particle by particle.
The test system of a further series is K562. The series is described as follows: Cell cycle arrest in human K562 cells assessed as mitotic index at 10 times IC50 (reference value: […] +/- […]%). It counts as functional.
The next series deals with CYP3A4 (Homo sapiens, UniProt P08684). The experiment in a line: Inhibition of human CYP3A4 using ketoconazole as substrate at 1 uM. It is filed as ADME. Conditions: probe ketoconazole.
Chain of CYP3A4 (P08684 whole entry): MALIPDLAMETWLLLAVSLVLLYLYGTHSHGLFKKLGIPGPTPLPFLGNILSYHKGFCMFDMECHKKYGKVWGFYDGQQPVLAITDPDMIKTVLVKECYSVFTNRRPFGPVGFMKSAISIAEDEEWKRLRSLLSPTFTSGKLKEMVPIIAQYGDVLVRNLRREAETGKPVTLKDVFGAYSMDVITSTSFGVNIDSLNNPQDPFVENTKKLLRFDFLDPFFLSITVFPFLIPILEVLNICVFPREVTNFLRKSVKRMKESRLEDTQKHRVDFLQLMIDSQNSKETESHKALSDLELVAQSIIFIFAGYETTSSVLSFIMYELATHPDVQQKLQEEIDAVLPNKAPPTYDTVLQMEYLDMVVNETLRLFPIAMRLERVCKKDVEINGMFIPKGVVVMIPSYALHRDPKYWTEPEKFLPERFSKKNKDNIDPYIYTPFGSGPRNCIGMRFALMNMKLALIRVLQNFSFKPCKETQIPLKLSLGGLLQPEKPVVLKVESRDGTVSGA
Series [7] relates to HeLa. The experiment in a line: Induction of apoptosis in human HeLa cells assessed as blockage of mitotic progression at 100 nM by annexin V staining-based immunofluorescence microscopy. It is filed as functional, cell-based.
The next series concerns HepG2. The experiment in a line: Cell cycle arrest in human HepG2 cells at 500 to 2000 nM incubated for 24 hrs followed by compound washout measured after 24 hrs. It is filed as functional, cell-based.
In a further series the test system is NCI/ADR-RES. The experiment in a line: Cytotoxicity against human NCI/ADR-RES cells assessed as growth inhibition after 96 hrs by Giemsa staining-based light microscopy. It is filed as functional, cell-based.

Chain of CYP2C9 (P11712 whole entry): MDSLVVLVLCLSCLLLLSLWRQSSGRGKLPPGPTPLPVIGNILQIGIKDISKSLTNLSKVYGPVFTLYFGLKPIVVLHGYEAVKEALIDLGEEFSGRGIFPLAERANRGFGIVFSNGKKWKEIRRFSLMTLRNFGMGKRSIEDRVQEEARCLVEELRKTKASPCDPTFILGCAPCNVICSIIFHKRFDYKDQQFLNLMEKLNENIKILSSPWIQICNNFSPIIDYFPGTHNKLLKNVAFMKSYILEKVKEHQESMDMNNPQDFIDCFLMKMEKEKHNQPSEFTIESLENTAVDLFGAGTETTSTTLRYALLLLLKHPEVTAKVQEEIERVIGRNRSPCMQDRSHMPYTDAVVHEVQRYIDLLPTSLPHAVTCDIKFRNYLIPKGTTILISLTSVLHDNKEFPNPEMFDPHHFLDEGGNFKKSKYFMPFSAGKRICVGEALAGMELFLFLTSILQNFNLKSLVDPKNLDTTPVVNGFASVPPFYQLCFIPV

For the molecule `COc1cc(C(=O)c2ccn(-c3cccc(N)c3)c2)cc(OC)c1OC`, the half-life in [1] was found to be 1.23 h. Moreover, the IC50 – broadly, the concentration needed to halve the response being measured – in the series on RD is 95.3 nM; in series [2], 9.8 nM; in the series on NCI/ADR-RES it was 1 nM. For the same molecule, the inhibition (usually the percentage by which the read-out fell short of the control) at 1 µM against CYP2C9 turned out to be 28.9%; against CYP3A4, 12.2%. Moreover, in series [3], the Cmax (as a rule, the peak of the concentration-time curve) worked out at 1770 ng/mL. On Tubulin (Homo sapiens), this molecule displayed an inhibition of 86%. Besides, the MRT (commonly a mean duration of stay, worked out from the concentration-time curve) in series [4] was 2.42 h. In addition, the result in the series on HeLa [5], with HeLa [6] and in the series on HeLa [7] was Active. Also, in the series with K562, the Activity is 60%. Also, the result in the series on HepG2 was inactive.
